# Like-named read-outs stand apart in the source and are kept apart here.
# Legend:
# hRV-63 = test: Rhinovirus type 63 antiviral assay in Hela Rh cells, MTS readout; format: cell-based, Human rhinovirus
# hRV-41 = test: Rhinovirus type 41 antiviral assay in Hela Rh cells, MTS readout; format: cell-based, Human rhinovirus
# coxsackie virus (CVA9) = test: Coxsackievirus (CVA9) antiviral assay in BGM cells; format: cell-based; conditions: Enterovirus B
# hRV-14 = test: Rhinovirus type 14 antiviral assay in Hela Rh cells, MTS readout; format: cell-based, Human rhinovirus
# hRV-89 = test: Rhinovirus type 89 antiviral assay in Hela Rh cells, MTS readout; format: cell-based, Human rhinovirus; conditions: Rhinovirus A, HRV89, HeLa Rh; methodology of example 451; read-out: EC50 (μg/ml) hRV-89
# hRV-15 = test: Rhinovirus type 15 antiviral assay in Hela Rh cells, MTS readout; format: cell-based, Human rhinovirus
# [1] = tested on: Enteric Cytopathic Human Orphan virus (ECHO11); test: organism not typed; format: cell-based; conditions: BGM, read-out: EC50 (ECHO virus)
# poliovirus (PV type 3) = test: microbe, parasite or virus in culture; format: cell-based; conditions: Enterovirus C, read-out: PV-3 EC50
# in vitro [2] = conditions: African green monkey
# [3] = Cytotoxicity in RD cells (enterovirus methodology); conditions: human
# enterovirus (EV71) = test: Enterovirus (EV71) antiviral assay in RD cells; format: cell-based
# hRV-9 = test: Rhinovirus type 9 antiviral assay in Hela Rh cells, MTS readout; format: cell-based, Human rhinovirus
# HIV-1 strain IIIB = test: Inhibition of replication of HIV-1 (IIIB strain) in MT-4 cells, MTT assay; format: cell-based; conditions: Human immunodeficiency virus 1, IIIB, MT4, 120 h; MT-4 cells, MTT assay, five days after infection, 50% protection from cytopathic effect; read-out: EC50 (μM) HIV-1 (IIIB)
# hRV-85 = test: Rhinovirus type 85 antiviral assay in Hela Rh cells, MTS readout; format: cell-based, Human rhinovirus
# in vitro [4] = conditions: human
# hRV-59 = test: Rhinovirus type 59 antiviral assay in Hela Rh cells, MTS readout; format: cell-based; conditions: Human rhinovirus sp., HRV59, HeLa Rh; methodology of example 451; read-out: EC50 (μg/ml) hRV-59
# hRV-39 = test: Rhinovirus type 39 antiviral assay in Hela Rh cells, MTS readout; format: cell-based, Human rhinovirus
# in vitro [5] = conditions: human, PV CC50
# hRV-72 = test: Rhinovirus type 72 antiviral assay in Hela Rh cells, MTS readout; format: cell-based, Human rhinovirus
# hRV-86 = test: Rhinovirus type 86 antiviral assay in Hela Rh cells, MTS readout; format: cell-based, Human rhinovirus
# HIV-2 strain (ROD) = test: Inhibition of replication of HIV-2 (ROD strain) in MT-4 cells, MTT assay; format: cell-based; conditions: Human immunodeficiency virus 2, MT4, 120 h; MT-4 cells, MTT assay, five days after infection, 50% protection from cytopathic effect; read-out: EC50 (μM) HIV-2 (ROD)
# poliovirus (PV type 2) = test: microbe, parasite or virus in culture; format: cell-based; conditions: Enterovirus C, read-out: PV-2 EC50
# [6] = Cytostatic/cytotoxic effect in Hela Rh cells (rhinovirus methodology, MTS); conditions: human, CC50 (μg/ml), rhinovirus methodology of example 451
# hRV-29 = test: Rhinovirus type 29 antiviral assay in Hela Rh cells, MTS readout; format: cell-based; conditions: Human rhinovirus sp., HRV29, HeLa Rh, methodology of example 451; read-out: EC50 (μg/ml) hRV-29
# hRV-45 = test: Rhinovirus type 45 antiviral assay in Hela Rh cells, MTS readout; format: cell-based, Human rhinovirus
# poliovirus (PV type 1) = test: microbe, parasite or virus in culture; format: cell-based; conditions: Enterovirus C, read-out: PV-1 EC50
# hRV-70 = test: Rhinovirus type 70 antiviral assay in Hela Rh cells, MTS readout; format: cell-based, Human rhinovirus
# [7] = Cytotoxicity reported with the coxsackievirus (CVA9) assay; conditions: African green monkey
# hRV-42 = test: Rhinovirus type 42 antiviral assay in Hela Rh cells, MTS readout; format: cell-based, Human rhinovirus
# in vitro [8] = conditions: African green monkey, PV CC50
# hRV-2 = test: Rhinovirus type 2 antiviral assay in Hela Rh cells, MTS readout; format: cell-based, Human rhinovirus
# Vero cells = conditions: African green monkey
# Hela H cells = conditions: human
# Hela Rh cells = test: Cytostatic/cytotoxic effect in Hela Rh cells (rhinovirus methodology, MTS)
compound,measurement,setting,value
"Nc1nc(N2CCN(C(=O)COc3ccc(Cl)cc3)CC2)c2nc(-c3ccc(F)cc3)sc2n1 [Example 45, 1-(4-(5-amino-2-(4-fluorophenyl)thiazolo[5,4-d]pyrimidin-7-yl)piperazin-1-yl)-2-(4-chlorophenoxy)ethanone]",EC50,"hRV-63; Human rhinovirus sp., HRV63, HeLa Rh, methodology of example 451, read-out: EC50 (μg/ml) hRV-63",0.018 µg/mL
same,EC50,"hRV-41; Human rhinovirus sp., HRV41, HeLa Rh, methodology of example 451, read-out: EC50 (μg/ml) hRV-41",0.0129 µg/mL
same,EC50,coxsackie virus (CVA9),0.29 µg/mL
same,EC50,"hRV-14; Rhinovirus B, HRV14, HeLa Rh, methodology of example 451, read-out: EC50 (μg/ml) hRV-14",0.0701 µg/mL
same,EC50,hRV-89,0.021 µg/mL
same,EC50,"hRV-15; Human rhinovirus sp., HRV15, HeLa Rh, methodology of example 451, read-out: EC50 (μg/ml) hRV-15",0.017 µg/mL
same,EC50,[1],0.076 µg/mL
same,EC50,poliovirus (PV type 3); HeLa,< 0.023 µg/mL
same,EC50,poliovirus (PV type 3); Vero,< 0.023 µg/mL
same,CC50,in vitro [2],28.7 µg/mL
same,CC50,[3],27.8 µg/mL
same,EC50,enterovirus (EV71),0.0695 µg/mL
same,EC50,"hRV-9; Human rhinovirus sp., HRV9, HeLa Rh, methodology of example 451, read-out: EC50 (μg/ml) hRV-9",0.0082 µg/mL
same,EC50,HIV-1 strain IIIB,0.73 µM
same,EC50,"hRV-85; Human rhinovirus sp., HRV85, HeLa Rh, methodology of example 451, read-out: EC50 (μg/ml) hRV-85",0.0295 µg/mL
same,CC50,in vitro [4],149 µM
same,EC50,hRV-59,0.02 µg/mL
same,EC50,"hRV-39; Human rhinovirus sp., HRV39, HeLa Rh, methodology of example 451, read-out: EC50 (μg/ml) hRV-39",0.012 µg/mL
same,CC50,in vitro [5],> 50 µg/mL
same,EC50,"hRV-72; Human rhinovirus sp., HRV72, HeLa Rh, methodology of example 451, read-out: EC50 (μg/ml) hRV-72",0.0736 µg/mL
same,EC50,"hRV-86; Human rhinovirus sp., HRV86, HeLa Rh, methodology of example 451, read-out: EC50 (μg/ml) hRV-86",0.047 µg/mL
same,EC50,HIV-2 strain (ROD),0.45 µM
same,EC50,poliovirus (PV type 2); HeLa,< 0.023 µg/mL
same,EC50,poliovirus (PV type 2); Vero,< 0.023 µg/mL
same,CC50,[6],21.7 µg/mL
same,EC50,hRV-29,0.011 µg/mL
same,EC50,"hRV-45; Human rhinovirus sp., HRV45, HeLa Rh, methodology of example 451, read-out: EC50 (μg/ml) hRV-45",0.198 µg/mL
same,EC50,poliovirus (PV type 1); HeLa,< 0.023 µg/mL
same,EC50,poliovirus (PV type 1); Vero,< 0.023 µg/mL
same,EC50,"hRV-70; Human rhinovirus sp., HRV70, HeLa Rh, methodology of example 451, read-out: EC50 (μg/ml) hRV-70",0.0718 µg/mL
same,CC50,[7],25.7 µg/mL
same,EC50,"hRV-42; Human rhinovirus sp., HRV42, HeLa Rh, methodology of example 451, read-out: EC50 (μg/ml) hRV-42",0.0142 µg/mL
same,CC50,in vitro [8],> 150 µg/mL
same,EC50,"hRV-2; Rhinovirus A, HRV2, HeLa Rh, methodology of example 451, read-out: EC50 (μg/ml) hRV-2",0.0095 µg/mL
"O=C(COc1ccc(Cl)cc1)N1CCN(c2ncnc3oc(-c4ccc(F)cc4)nc23)CC1 [Example 167, 2-(4-chlorophenoxy)-1-(4-(2-(4-fluorophenyl)oxazolo[5,4-d]pyrimidin-7-yl)piperazin-1-yl)ethanone]",EC50,poliovirus (PV type 3); HeLa,> 50 µg/mL
same,EC50,poliovirus (PV type 3); Vero,> 50 µg/mL
same,EC50,HIV-1 strain IIIB,> 50 µM
same,CC50,in vitro [4],> 50 µM
same,PV CC50,Vero cells,105.69 µg/mL
same,CC50,in vitro [5],> 50 µg/mL
same,EC50,HIV-2 strain (ROD),> 50 µM
same,EC50,poliovirus (PV type 2); HeLa,≥ 50 µg/mL
same,PV CC50,Hela H cells,31.91 µg/mL
same,EC50,poliovirus (PV type 1); HeLa,> 50 µg/mL
same,EC50,poliovirus (PV type 1); Vero,> 50 µg/mL
same,CC50,in vitro [8],> 150 µg/mL
"Nc1nc(N2CCN(C(=O)COc3ccc(Br)cc3)CC2)c2sc(Cc3ccc(F)cc3)nc2n1 [Example 231, 1-(4-(5-amino-2-(4-fluorobenzyl)thiazolo[5,4-c]pyrimidin-7-yl)piperazin-1-yl)-2-(4-bromophenoxy)ethanone]",hRV-63 EC50,hRV-63; Hela Rh cells,=2.32 μg/ml
same,hRV-41 EC50,hRV-41; Hela Rh cells,=0.89 μg/ml
same,hRV-14 EC50,hRV-14; Hela Rh cells,=1.20 μg/ml
same,hRV-15 EC50,hRV-15; Hela Rh cells,=1.38 μg/ml
same,hRV-9 EC50,hRV-9; Hela Rh cells,=0.55 μg/ml
same,hRV-85 EC50,hRV-85; Hela Rh cells,=2.21 μg/ml
same,hRV-39 EC50,hRV-39; Hela Rh cells,=0.34 μg/ml
same,hRV-72 EC50,hRV-72; Hela Rh cells,=4.95 μg/ml
same,hRV-86 EC50,hRV-86; Hela Rh cells,=4.42 μg/ml
same,CC50,Hela Rh cells,>50.00 µg/mL
same,hRV-45 EC50,hRV-45; Hela Rh cells,=2.22 μg/ml
same,hRV-70 EC50,hRV-70; Hela Rh cells,=4.60 μg/ml
same,hRV-42 EC50,hRV-42; Hela Rh cells,=1.26 μg/ml
same,hRV-2 EC50,hRV-2; Hela Rh cells,=0.51 μg/ml

# Source: patent publication US9730944B2, “Antiviral activity of novel bicyclic heterocycles” (priority 2010, dated 2017)
